Measurements taken from patent US20150105252A1, “SUBSTITUTED PYRAZOLES AS HERBICIDES” (E I DU PONT DE NEMOURS AND COMPANY, priority 2013, published 2015).

How the values were obtained:
arrowleaf sida = assay: Test F postemergence; assay type: in vivo, Sida rhombifolia; settings: scale 0 to 100
Excerpt: (§1) Seeds of plant species selected from corn (Zea mays), soybean (Glycine max), velvetleaf (Abutilon theophrasti), lambsquarters (Chenopodium album), wild poinsettia (Euphorbia heterophylla), pigweed, palmer (palmer pigweed, Amaranthus palmeri), common waterhemp (Amaranthus rudis), surinam grass (Brachiaria decumbens), large crabgrass (Digitaria sanguinalis), crabgrass, Brazil (Brazilian crabgrass, Digitaria horizontalis), fall panicum (Panicum dichotomiflorum), giant foxtail (Setaria faberii), green foxtail (Setaria viridis), goosegrass (Eleusine indica), johnsongrass (Sorghum halepense), common ragweed (Ambrosia elation), barnyardgrass (Echinochloa crus-galli), southern sandbur (Cenchrus echinatus), arrowleaf sida (Sida rhombifolia), Italian ryegrass (Lolium multiflorum), dayflower, VA (Virginia (VA) dayflower, Commelina virginica), field bindweed (Convolvulus arvensis), cocklebur (common cocklebur, Xanthium strumarium), morningglory (Ipomoea coccinea), nightshade (eastern black nightshade, Solanum ptycanthum), kochia (Kochia scoparia), yellow nutsedge (Cyperus esculentus), and hairy beggarticks (Bidens pilosa), were planted into a silt loam soil and treated preemergence with test chemicals formulated in a non-phytotoxic solvent mixture which included a surfactant.
(§2) At the same time, plants from these crop and weed species and also horseweed (Canada horseweed, Conyza canadensis), smartweed (ladysthumb smartweed, Polygonum persicaria), waterhemp_RES1, (ALS & Triazine resistant common waterhemp, Amaranthus rudis), and waterhemp_RES2, (ALS & HPPD resistant common waterhemp, Amaranthus rudis) were treated with postemergence applications of test chemicals formulated in the same manner. Plants ranged in height from 2 to 18 cm for postemergence treatments (1- to 4-leaf stage). Treated plants and controls were maintained in a greenhouse for 14 to 21 days, after which time all species were compared to controls and visually evaluated. Plant response ratings, summarized in Table F, are based on a scale of 0 to 100 where 0 is no effect and 100 is complete control. A dash (-) response means no test result.

[1] = tested on: waterhemp_RES1 (ALS & Triazine resistant common waterhemp); assay: Test F postemergence; assay type: in vivo, Amaranthus rudis; settings: scale 0 to 100
In short: (§3)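 Percent-control style visual scores, from 0 (no effect) to 100 (complete control), were given relative to controls. Treatment timing: preemergence on silt loam plantings, or postemergence at 1- to 4-leaf stage. Evaluation came 14 to 21 days after spraying, greenhouse conditions.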

common waterhemp = assay: Test F postemergence; assay type: in vivo, Amaranthus rudis; settings: scale 0 to 100
In short: as §3

bermudagrass = assay: Test E preemergence; assay type: in vivo, Cynodon dactylon; settings: 21 days, scale 0 to 100
Excerpt: (§4) Seeds of plant species selected from bermudagrass (Cynodon dactylon), Surinam grass (Brachiaria decumbens), crabgrass, large (large crabgrass, Digitaria sanguinalis), crabgrass, naked (naked crabgrass, Digitaria nuda), foxtail, green (green foxtail, Setaria viridis), johnsongrass (Sorghum halepense), kochia (Kochia scoparia), morningglory (pitted morningglory, Ipomoea lacunosa), nutsedge, purple (purple nutsedge, Cyperus rotundus), ragweed (common ragweed, Ambrosia elation), mustard, black (black mustard, Brassica nigra), guineagrass (Panicum maximum), dallisgrass (Paspalum dilatatum), barnyardgrass (Echinochloa crus-galli), sandbur (southern sandbur, Cenchrus echinatus), sowthistle (common sowthistle, Sonchus oleraceous), ryegrass, Italian (Italian ryegrass, Lolium multiflorum), signalgrass (broadleaf signalgrass, Brachiaria platyphylla), dayflower, VA (Virginia (VA) dayflower, Commelina virginica), bluegrass (annual bluegrass, Poa annua), quackgrass (Elytrigia repens), mallow (common mallow, Malva sylvestris), buckwheat, wild (wild buckwheat, Polygonum convolvulus), leafy spurge (Euphorbia esula), common chickweed (Stellaria media), wild poinsettia (Euphorbia heterophylla), pigweed, palmer (palmer pigweed, Amaranthus palmeri), and pigweed (redroot pigweed, Amaranthus retroflexus) were planted into a blend of loam soil and sand and treated preemergence with test chemicals formulated in a non-phytotoxic solvent mixture which included a surfactant.
(§5) Treated plants and controls were maintained in a greenhouse for 21 days, after which time all species were compared to controls and visually evaluated. Plant response ratings, summarized in Table E, are based on a scale of 0 to 100 where 0 is no effect and 100 is complete control. A dash (-) response means no test result.

horseweed = assay: Test F postemergence; assay type: in vivo, Conyza canadensis; settings: scale 0 to 100
Excerpt: as §1, §2

crabgrass, naked = assay: Test E preemergence; assay type: in vivo, Digitaria nuda; settings: 21 days, scale 0 to 100
Excerpt: as §4, §5

wild poinsettia = assay: Test E preemergence; assay type: in vivo, Euphorbia heterophylla; settings: 21 days, scale 0 to 100
Excerpt: as §4, §5

Row | SMILES | Plant response rating, Arrowleaf Sida (arrowleaf sida; Postemergence, 31 g ai/ha) | Plant response rating, Arrowleaf Sida (arrowleaf sida; Postemergence, 125 g ai/ha) | Plant response rating, Arrowleaf Sida (arrowleaf sida; Postemergence, 250 g ai/ha) | Plant response rating, Arrowleaf Sida (arrowleaf sida; postemergence, 62 g ai/ha) | Plant response rating, Arrowleaf Sida (arrowleaf sida; postemergence, 500 g ai/ha) | Plant response rating, Waterhemp_RES1 ([1]; Postemergence, 31 g ai/ha) | Plant response rating, Waterhemp_RES1 ([1]; Postemergence, 125 g ai/ha) | Plant response rating, Waterhemp_RES1 ([1]; Postemergence, 250 g ai/ha) | Plant response rating, Waterhemp_RES1 ([1]; postemergence, 62 g ai/ha) | Plant response rating, Waterhemp_RES1 ([1]; postemergence, 500 g ai/ha) | Plant response rating, Common Waterhemp (common waterhemp; Postemergence, 31 g ai/ha) | Plant response rating, Common Waterhemp (common waterhemp; Postemergence, 125 g ai/ha) | Plant response rating, Common Waterhemp (common waterhemp; Postemergence, 250 g ai/ha) | Plant response rating, Common Waterhemp (common waterhemp; postemergence, 62 g ai/ha) | Plant response rating, Common Waterhemp (common waterhemp; postemergence, 500 g ai/ha) | Plant response rating, Bermudagrass (bermudagrass; 16 g ai/ha) | Plant response rating, Bermudagrass (bermudagrass; 31 g ai/ha) | Plant response rating, Bermudagrass (bermudagrass; 62 g ai/ha) | Plant response rating, Crabgrass, Naked (crabgrass, naked; 31 g ai/ha) | Plant response rating, Crabgrass, Naked (crabgrass, naked; 62 g ai/ha) | other results
1 | CCc1cc(C(=O)NCC(F)(F)F)nn1Cc1ccnc(C(F)(F)F)c1 [Compound 78, 5-ethyl-N-(2,2,2-trifluoroethyl)-1-[[(2-trifluoromethyl)-4-pyridinyl]methyl]-1H-pyrazole-3-carboxamide] | 50 | 75 | 80 | 60 | 95 | 60 | 60 | 65 | 70 | 100 | 70 | 75 | 70 | 60 | 98 | 70 | 85 | 100 | 95 | 95 | Plant response rating, Bermudagrass (bermudagrass; 125 g ai/ha): 100; Plant response rating, Bermudagrass (bermudagrass; 250 g ai/ha): 100; Plant response rating, Horseweed (horseweed; Postemergence, 31 g ai/ha): 25; Plant response rating, Horseweed (horseweed; Postemergence, 125 g ai/ha): 40; Plant response rating, Horseweed (horseweed; Postemergence, 250 g ai/ha): 50; Plant response rating, Horseweed (horseweed; postemergence, 62 g ai/ha): 30; Plant response rating, Horseweed (horseweed; postemergence, 500 g ai/ha): 75; Plant response rating, Crabgrass, Naked (crabgrass, naked; 125 g ai/ha): 100; Plant response rating, Crabgrass, Naked (crabgrass, naked; 250 g ai/ha): 100
2 | CCc1cc(C(=O)NC(C)C)nn1Cc1ccnc(C(F)(F)F)c1 [Compound 103] |  |  |  |  |  |  |  |  |  |  |  |  |  |  |  | 80 | 98 | 100 | 100 | 100 | Plant response rating, Wild Poinsettia (wild poinsettia; 16 g ai/ha): 80; Plant response rating, Wild Poinsettia (wild poinsettia; 31 g ai/ha): 95; Plant response rating, Wild Poinsettia (wild poinsettia; 62 g ai/ha): 100; Plant response rating, Wild Poinsettia (wild poinsettia; 125 g ai/ha): 100; Plant response rating, Wild Poinsettia (wild poinsettia; 250 g ai/ha): 100; Plant response rating, Bermudagrass (bermudagrass; 125 g ai/ha): 98; Plant response rating, Bermudagrass (bermudagrass; 250 g ai/ha): 100; Plant response rating, Crabgrass, Naked (crabgrass, naked; 16 g ai/ha): 100; Plant response rating, Crabgrass, Naked (crabgrass, naked; 125 g ai/ha): 100; Plant response rating, Crabgrass, Naked (crabgrass, naked; 250 g ai/ha): 100
3 | CCOc1cc(C(=O)NCC(F)(F)F)nn1Cc1ccnc(C(F)(F)F)c1 [Compound 104] | 55 | 70 | 80 | 60 | 95 | 70 | 90 | 75 | 75 | 85 | 75 | 85 | 85 | 80 | 90 | 90 | 95 | 98 | 100 | 100 | Plant response rating, Wild Poinsettia (wild poinsettia; 16 g ai/ha): 95; Plant response rating, Wild Poinsettia (wild poinsettia; 31 g ai/ha): 100; Plant response rating, Wild Poinsettia (wild poinsettia; 62 g ai/ha): 100; Plant response rating, Wild Poinsettia (wild poinsettia; 125 g ai/ha): 100; Plant response rating, Wild Poinsettia (wild poinsettia; 250 g ai/ha): 100; Plant response rating, Bermudagrass (bermudagrass; 125 g ai/ha): 100; Plant response rating, Bermudagrass (bermudagrass; 250 g ai/ha): 100; Plant response rating, Horseweed (horseweed; Postemergence, 31 g ai/ha): 25; Plant response rating, Horseweed (horseweed; Postemergence, 125 g ai/ha): 35; Plant response rating, Horseweed (horseweed; Postemergence, 250 g ai/ha): 35; Plant response rating, Horseweed (horseweed; postemergence, 62 g ai/ha): 30; Plant response rating, Horseweed (horseweed; postemergence, 500 g ai/ha): 45; Plant response rating, Crabgrass, Naked (crabgrass, naked; 16 g ai/ha): 95; Plant response rating, Crabgrass, Naked (crabgrass, naked; 125 g ai/ha): 100; Plant response rating, Crabgrass, Naked (crabgrass, naked; 250 g ai/ha): 100
4 | CCOc1cc(C(=O)NC(C)C)nn1Cc1ccnc(C(F)(F)F)c1 [Compound 188] | 50 | 60 | 70 | 50 | 80 | 60 | 50 | 80 | 70 | 85 | 60 | 80 | 80 | 70 | 90 |  |  |  |  |  | Plant response rating, Horseweed (horseweed; Postemergence, 31 g ai/ha): 20; Plant response rating, Horseweed (horseweed; Postemergence, 125 g ai/ha): 30; Plant response rating, Horseweed (horseweed; Postemergence, 250 g ai/ha): 40; Plant response rating, Horseweed (horseweed; postemergence, 62 g ai/ha): 30; Plant response rating, Horseweed (horseweed; postemergence, 500 g ai/ha): 50
5 | CCOc1cc(C(=O)NC2CC2)nn1Cc1ccnc(C(F)(F)F)c1 [Compound 189] |  |  |  |  |  |  |  |  |  |  |  |  |  |  |  | 65 | 85 | 98 | 100 | 100 | Plant response rating, Wild Poinsettia (wild poinsettia; 4 g ai/ha): 10; Plant response rating, Wild Poinsettia (wild poinsettia; 8 g ai/ha): 25; Plant response rating, Wild Poinsettia (wild poinsettia; 16 g ai/ha): 65; Plant response rating, Wild Poinsettia (wild poinsettia; 31 g ai/ha): 95; Plant response rating, Wild Poinsettia (wild poinsettia; 62 g ai/ha): 100; Plant response rating, Bermudagrass (bermudagrass; 4 g ai/ha): 0; Plant response rating, Bermudagrass (bermudagrass; 8 g ai/ha): 0; Plant response rating, Crabgrass, Naked (crabgrass, naked; 4 g ai/ha): 40; Plant response rating, Crabgrass, Naked (crabgrass, naked; 8 g ai/ha): 95; Plant response rating, Crabgrass, Naked (crabgrass, naked; 16 g ai/ha): 100
